Data as given in the NIST ThermoML archive (doi:10.1016/j.jct.2016.03.030).
± gives the expanded uncertainty stated by the source.

Test: xn = mol fraction of the nth substance listed
Conditions: 100 kPa, Liquid; for viscosity: Falling or rolling sphere viscometry; for mass density: Vibrating tube method

## CCCC[N+]1(C)CCOCC1.[Br-] [4-butyl-4-methylmorpholinium bromide] + O
323.15 K, x1 = 0.0363
  viscosity: 1.039 ± 0.1 mPa·s
  mass density: 1073.2 ± 1.1 kg/m3
323.15 K, x1 = 0.0601
  viscosity: 1.578 ± 0.16 mPa·s
  mass density: 1110.8 ± 1 kg/m3
323.15 K, x1 = 0.0988
  viscosity: 2.745 ± 0.28 mPa·s
  mass density: 1154.6 ± 1 kg/m3
323.15 K, x1 = 0.1242
  viscosity: 3.912 ± 0.39 mPa·s
  mass density: 1175.3 ± 1 kg/m3
323.15 K, x1 = 0.154
  viscosity: 5.805 ± 0.58 mPa·s
  mass density: 1194.4 ± 1 kg/m3
323.15 K, x1 = 0.2027
  viscosity: 10.72 ± 1.1 mPa·s
  mass density: 1217.7 ± 1.1 kg/m3
323.15 K, x1 = 0.2383
  viscosity: 16.36 ± 1.6 mPa·s
  mass density: 1230.5 ± 1.1 kg/m3
323.15 K, x1 = 0.2569
  viscosity: 22.35 ± 2.2 mPa·s
  mass density: 1235.9 ± 1.2 kg/m3
323.15 K, x1 = 0.3007
  viscosity: 36.9 ± 3.7 mPa·s
  mass density: 1247.2 ± 1.3 kg/m3
323.15 K, x1 = 0.0017
  mass density: 993 ± 1.2 kg/m3
323.15 K, x1 = 0.0033
  mass density: 997.7 ± 1.2 kg/m3
323.15 K, x1 = 0.0066
  mass density: 1007 ± 1.1 kg/m3
323.15 K, x1 = 0.0088
  mass density: 1012.9 ± 1.1 kg/m3
323.15 K, x1 = 0.0167
  mass density: 1032.5 ± 1.1 kg/m3
323.15 K, x1 = 0.034
  mass density: 1068.8 ± 1.1 kg/m3
328.15 K, x1 = 0.0363
  viscosity: 0.923 ± 0.093 mPa·s
  mass density: 1070.1 ± 1.1 kg/m3
328.15 K, x1 = 0.0601
  viscosity: 1.387 ± 0.14 mPa·s
  mass density: 1107.6 ± 1 kg/m3
328.15 K, x1 = 0.0988
  viscosity: 2.377 ± 0.24 mPa·s
  mass density: 1151.2 ± 1 kg/m3
328.15 K, x1 = 0.1242
  viscosity: 3.323 ± 0.33 mPa·s
  mass density: 1171.8 ± 1 kg/m3
328.15 K, x1 = 0.154
  viscosity: 4.888 ± 0.49 mPa·s
  mass density: 1191 ± 1 kg/m3
328.15 K, x1 = 0.2027
  viscosity: 8.882 ± 0.89 mPa·s
  mass density: 1214.3 ± 1.1 kg/m3
328.15 K, x1 = 0.2383
  viscosity: 13.28 ± 1.3 mPa·s
  mass density: 1227.1 ± 1.1 kg/m3
328.15 K, x1 = 0.2569
  viscosity: 18.01 ± 1.8 mPa·s
  mass density: 1232.5 ± 1.2 kg/m3
328.15 K, x1 = 0.3007
  viscosity: 29.03 ± 2.9 mPa·s
  mass density: 1243.9 ± 1.3 kg/m3
328.15 K, x1 = 0.0017
  mass density: 990.6 ± 1.2 kg/m3
328.15 K, x1 = 0.0033
  mass density: 995.3 ± 1.2 kg/m3
328.15 K, x1 = 0.0066
  mass density: 1004.5 ± 1.1 kg/m3
328.15 K, x1 = 0.0088
  mass density: 1010.4 ± 1.1 kg/m3
328.15 K, x1 = 0.0167
  mass density: 1029.8 ± 1.1 kg/m3
328.15 K, x1 = 0.034
  mass density: 1065.9 ± 1.1 kg/m3
333.15 K, x1 = 0.0363
  viscosity: 0.83 ± 0.083 mPa·s
  mass density: 1067.3 ± 1.1 kg/m3
333.15 K, x1 = 0.0601
  viscosity: 1.233 ± 0.12 mPa·s
  mass density: 1104.4 ± 1 kg/m3
333.15 K, x1 = 0.0988
  viscosity: 2.082 ± 0.21 mPa·s
  mass density: 1147.8 ± 1 kg/m3
333.15 K, x1 = 0.1242
  viscosity: 2.867 ± 0.29 mPa·s
  mass density: 1168.4 ± 1 kg/m3
333.15 K, x1 = 0.154
  viscosity: 4.16 ± 0.42 mPa·s
  mass density: 1187.5 ± 1 kg/m3
333.15 K, x1 = 0.2027
  viscosity: 7.465 ± 0.75 mPa·s
  mass density: 1210.8 ± 1.1 kg/m3
333.15 K, x1 = 0.2383
  viscosity: 10.98 ± 1.1 mPa·s
  mass density: 1223.7 ± 1.1 kg/m3
333.15 K, x1 = 0.2569
  viscosity: 14.86 ± 1.5 mPa·s
  mass density: 1229.1 ± 1.2 kg/m3
333.15 K, x1 = 0.3007
  viscosity: 23.47 ± 2.4 mPa·s
  mass density: 1240.5 ± 1.3 kg/m3
333.15 K, x1 = 0.0017
  mass density: 988.1 ± 1.2 kg/m3
333.15 K, x1 = 0.0033
  mass density: 992.7 ± 1.1 kg/m3
333.15 K, x1 = 0.0066
  mass density: 1001.9 ± 1.1 kg/m3
333.15 K, x1 = 0.0088
  mass density: 1007.8 ± 1.1 kg/m3
333.15 K, x1 = 0.0167
  mass density: 1027.1 ± 1.1 kg/m3
333.15 K, x1 = 0.034
  mass density: 1062.9 ± 1.1 kg/m3
338.15 K, x1 = 0.0363
  viscosity: 0.751 ± 0.075 mPa·s
  mass density: 1064.3 ± 1.1 kg/m3
338.15 K, x1 = 0.0601
  viscosity: 1.106 ± 0.11 mPa·s
  mass density: 1101.1 ± 1 kg/m3
338.15 K, x1 = 0.0988
  viscosity: 1.836 ± 0.18 mPa·s
  mass density: 1144.3 ± 1 kg/m3
338.15 K, x1 = 0.1242
  viscosity: 2.502 ± 0.25 mPa·s
  mass density: 1164.8 ± 1 kg/m3
338.15 K, x1 = 0.154
  viscosity: 3.568 ± 0.36 mPa·s
  mass density: 1184 ± 1 kg/m3
338.15 K, x1 = 0.2027
  viscosity: 6.337 ± 0.64 mPa·s
  mass density: 1207.3 ± 1.1 kg/m3
338.15 K, x1 = 0.2383
  viscosity: 9.093 ± 0.91 mPa·s
  mass density: 1220.3 ± 1.1 kg/m3
338.15 K, x1 = 0.2569
  viscosity: 12.32 ± 1.2 mPa·s
  mass density: 1225.8 ± 1.2 kg/m3
338.15 K, x1 = 0.3007
  viscosity: 19.19 ± 1.9 mPa·s
  mass density: 1237.2 ± 1.3 kg/m3
338.15 K, x1 = 0.0017
  mass density: 985.4 ± 1.2 kg/m3
338.15 K, x1 = 0.0033
  mass density: 990 ± 1.1 kg/m3
338.15 K, x1 = 0.0066
  mass density: 999.2 ± 1.1 kg/m3
338.15 K, x1 = 0.0088
  mass density: 1005 ± 1.1 kg/m3
338.15 K, x1 = 0.0167
  mass density: 1024.2 ± 1.1 kg/m3
338.15 K, x1 = 0.034
  mass density: 1059.9 ± 1.1 kg/m3
343.15 K, x1 = 0.0363
  viscosity: 0.685 ± 0.069 mPa·s
  mass density: 1061.1 ± 1.1 kg/m3
343.15 K, x1 = 0.0601
  viscosity: 0.992 ± 0.1 mPa·s
  mass density: 1097.5 ± 1 kg/m3
343.15 K, x1 = 0.0988
  viscosity: 1.633 ± 0.16 mPa·s
  mass density: 1140.8 ± 1 kg/m3
343.15 K, x1 = 0.1242
  viscosity: 2.288 ± 0.23 mPa·s
  mass density: 1161.3 ± 1 kg/m3
343.15 K, x1 = 0.154
  viscosity: 3.149 ± 0.32 mPa·s
  mass density: 1180.4 ± 1 kg/m3
343.15 K, x1 = 0.2027
  viscosity: 5.442 ± 0.55 mPa·s
  mass density: 1203.8 ± 1.1 kg/m3
343.15 K, x1 = 0.2383
  viscosity: 7.452 ± 0.75 mPa·s
  mass density: 1216.8 ± 1.1 kg/m3
343.15 K, x1 = 0.2569
  viscosity: 10.42 ± 1.1 mPa·s
  mass density: 1222.4 ± 1.2 kg/m3
343.15 K, x1 = 0.3007
  viscosity: 15.92 ± 1.6 mPa·s
  mass density: 1233.8 ± 1.3 kg/m3
343.15 K, x1 = 0.0017
  mass density: 982.6 ± 1.1 kg/m3
343.15 K, x1 = 0.0033
  mass density: 987.2 ± 1.1 kg/m3
343.15 K, x1 = 0.0066
  mass density: 996.3 ± 1.1 kg/m3
343.15 K, x1 = 0.0088
  mass density: 1002.1 ± 1.1 kg/m3
343.15 K, x1 = 0.0167
  mass density: 1021.2 ± 1.1 kg/m3
343.15 K, x1 = 0.034
  mass density: 1056.7 ± 1.1 kg/m3
